The values below come from US8227612B2, “Quinoline compound and pharmaceutical composition, preparation method and uses thereof” (Shanghai Institute of Pharmaceutical Industry, priority 2008, dated 2012).

In this assay the test system is hyperlipidemia quail. Kind of assay: Lipid-lowering in vivo experiments in hyperlipidemia quail. The conditions noted are these: for CHO / H/L / HDL-C / LDL-C / TG: oral, blood after four weeks hypercholesterol diet. How it is done:
Lipid-lowering in vivo experiments are made in hyperlipidemia quail with the compounds [NT] according to the present invention. Atorvastatin (20 mg/kg) were used as the positive control. Two groups of dosage (Low: 5 mg/kg, High: 20 mg/kg) of the ten compounds of [NT] were tested. After one week feeding with normal diet, except for the normal control group, the model control group and the tested groups of quails were fed with hypercholesterol diet for four weeks, and then the blood was collected respectively for testing the content of […] including triglyceride, cholesterol, low density lipoprotein and high density lipoprotein.

Setting [1] is: oral administration, hyperlipidemia quail.

Under “High: 20 mg/kg”, `CC(C)c1c(C(=O)Nc2ccccc2)c(-c2ccccc2)c(-c2ccc(F)cc2)n1CC[C@@H](O)C[C@@H](O)CC(=O)O` [Atorvastatin, reference compound] registered a CHO of 6.51 mmol/L, a H/L of 2.19, an HDL-C of 4.39 mmol/L and an LDL-C of 2.51 mmol/L. The TG (High: 20 mg/kg) turned out to be 0.76 mmol/L.
For `CC(C)Sc1ccc(-c2cc3c(-c4ccc(SC(C)C)cc4)c(/C=C/[C@@H](O)C[C@@H](O)CC(=O)O)cnc3c(-c3ccc(SC(C)C)cc3)c2-c2ccc(SC(C)C)cc2)cc1` [Compound A1, (3R,5S)-7-[4,6,7,8-tetra-(4-isopropylthiophenyl)quinoline-3-yl]-3,5-dihydroxy-6(E)-heptenoic acid], where the note is “High: 20 mg/kg”, the CHO is 8.05 mmol/L, the H/L was determined as 1.54, the HDL-C turned out to be 5.31 mmol/L and the LDL-C turned out to be 3.63 mmol/L. The compound further showed a TG (High: 20 mg/kg) of 0.51 mmol/L. Where the note is “Low: 5 mg/kg”, this compound gave a CHO of 8.72 mmol/L, a H/L of 1.91, an HDL-C of 5.84 mmol/L and an LDL-C of 3.99 mmol/L. Further, under “Low: 5 mg/kg”, the TG is recorded as 0.59 mmol/L. Further, the “lipid-lowering effect (in words)” value under setting [1] is “obvious lipid-lowering effect”.
As to `COc1cccc(Sc2cc3ncc(/C=C/[C@@H](O)C[C@@H](O)CC(=O)[O-])c(Sc4cccc(OC)c4)c3cc2F)c1.COc1cccc(Sc2cc3ncc(/C=C/[C@@H](O)C[C@@H](O)CC(=O)[O-])c(Sc4cccc(OC)c4)c3cc2F)c1.[Ca+2]` [Compound A5], under “High: 20 mg/kg”, the CHO turned out to be 10.55 mmol/L, the H/L is 1.06, the HDL-C amounted to 5.35 mmol/L and the LDL-C amounted to 6.40 mmol/L. In addition, the TG (High: 20 mg/kg) is listed as 0.58 mmol/L. Further, where the note is “Low: 5 mg/kg”, the CHO is listed as 9.66 mmol/L, the H/L came to 1.29, the HDL-C was determined as 5.35 mmol/L and the LDL-C is given as 5.07 mmol/L. Further, the TG (Low: 5 mg/kg) is on record as 1.95 mmol/L. The “lipid-lowering effect (in words)” value under setting [1] is “obvious lipid-lowering effect”.
Regarding `CC(C)Sc1ccc(-c2c(/C=C/[C@@H](O)C[C@@H](O)CC(=O)[O-])cnc3c(F)c(F)c(F)cc23)cc1.CC(C)Sc1ccc(-c2c(/C=C/[C@@H](O)C[C@@H](O)CC(=O)[O-])cnc3c(F)c(F)c(F)cc23)cc1.[Ca+2]` [Compound A6, (3R,5S)-7-[6,7,8-trifluoro-4-(4-isopropylthiophenyl)quinoline-3-yl]-3,5-dihydroxy-6(E)-heptenoic acid hemi calcium salt], under “High: 20 mg/kg”, the CHO was 8.66 mmol/L, the H/L is recorded as 1.37, the HDL-C is reported as 4.74 mmol/L and the LDL-C is recorded as 3.66 mmol/L. The compound further returned a TG (High: 20 mg/kg) of 4.47 mmol/L. Moreover, where the note is “Low: 5 mg/kg”, the CHO amounted to 8.65 mmol/L, the H/L came to 1.21, the HDL-C came out at 4.89 mmol/L and the LDL-C is reported as 4.61 mmol/L. Further, the TG (Low: 5 mg/kg) was found to be 0.70 mmol/L. The “lipid-lowering effect (in words)” value under setting [1] is “obvious lipid-lowering effect”.
For the compound `O=C([O-])C[C@H](O)C[C@H](O)/C=C/c1cnc2c(F)c(F)c(F)cc2c1Sc1ccc(F)cc1.O=C([O-])C[C@H](O)C[C@H](O)/C=C/c1cnc2c(F)c(F)c(F)cc2c1Sc1ccc(F)cc1.[Ca+2]` [Compound A8], where the note is “High: 20 mg/kg”, the CHO was found to be 5.57 mmol/L, the H/L amounted to 2.21, the HDL-C came out at 3.73 mmol/L and the LDL-C is 1.94 mmol/L. The compound further yielded a TG (High: 20 mg/kg) of 0.45 mmol/L. For the setting “Low: 5 mg/kg”, this compound gave a CHO of 9.11 mmol/L, a H/L of 1.58, an HDL-C of 4.75 mmol/L and an LDL-C of 3.46 mmol/L. Moreover, under “Low: 5 mg/kg”, the TG is 1.50 mmol/L. Besides, under setting [1], the “lipid-lowering effect (in words)” value is “obvious lipid-lowering effect”.
Under “High: 20 mg/kg”, `O=C([O-])C[C@H](O)C[C@H](O)/C=C/c1cnc2c(Oc3ccccc3)c(Oc3ccccc3)c(Oc3ccccc3)cc2c1Oc1ccccc1.O=C([O-])C[C@H](O)C[C@H](O)/C=C/c1cnc2c(Oc3ccccc3)c(Oc3ccccc3)c(Oc3ccccc3)cc2c1Oc1ccccc1.[Ca+2]` [Compound A9, (3R,5S)-7-[4,6,7,8-tetra-phenoxyquinoline-3-yl]-3,5-dihydroxy-6(E)-heptenoic acid hemi calcium salt] displayed a CHO of 9.18 mmol/L, a H/L of 1.54, an HDL-C of 4.98 mmol/L and an LDL-C of 4.08 mmol/L. The compound further showed a TG (High: 20 mg/kg) of 1.26 mmol/L. Where the note is “Low: 5 mg/kg”, this compound had a CHO of 9.75 mmol/L, a H/L of 1.56, an HDL-C of 4.98 mmol/L and an LDL-C of 5.16 mmol/L. The same compound had a TG (Low: 5 mg/kg) of 1.24 mmol/L. Also, under setting [1], the “lipid-lowering effect (in words)” value is recorded as “obvious lipid-lowering effect”.
Turning to `COc1cccc(Sc2c(/C=C/[C@@H](O)C[C@@H](O)CC(=O)[O-])cnc3cc(Cl)c(F)cc23)c1.COc1cccc(Sc2c(/C=C/[C@@H](O)C[C@@H](O)CC(=O)[O-])cnc3cc(Cl)c(F)cc23)c1.[Ca+2]` [Compound A11], for the setting “High: 20 mg/kg”, the CHO turned out to be 8.53 mmol/L, the H/L was 1.33, the HDL-C is 5.06 mmol/L and the LDL-C is 4.30 mmol/L. This compound also displayed a TG (High: 20 mg/kg) of 0.42 mmol/L. Where the note is “Low: 5 mg/kg”, this compound registered a CHO of 11.63 mmol/L, a H/L of 1.24, an HDL-C of 6.32 mmol/L and an LDL-C of 6.51 mmol/L. Also, where the note is “Low: 5 mg/kg”, the TG is on record as 0.56 mmol/L. Under setting [1], the “lipid-lowering effect (in words)” value was “obvious lipid-lowering effect”.
Take `O=C([O-])C[C@H](O)C[C@H](O)/C=C/c1cnc2c(F)c(Oc3ccccc3)c(F)cc2c1Oc1ccccc1.O=C([O-])C[C@H](O)C[C@H](O)/C=C/c1cnc2c(F)c(Oc3ccccc3)c(F)cc2c1Oc1ccccc1.[Ca+2]` [Compound A12, (3R,5S)-7-[6,8-difluoro-4,7-di-(phenoxy)quinoline-3-yl]-3,5-dihydroxy-6(E)-heptenoic acid hemi calcium salt]: where the note is “High: 20 mg/kg”, the CHO turned out to be 6.25 mmol/L, the H/L is 2.11, the HDL-C was 3.77 mmol/L and the LDL-C came to 2.52 mmol/L. This compound also yielded a TG (High: 20 mg/kg) of 0.97 mmol/L. For the setting “Low: 5 mg/kg”, this compound displayed a CHO of 12.40 mmol/L, a H/L of 1.43, an HDL-C of 6.21 mmol/L and an LDL-C of 6.75 mmol/L. The compound also returned a TG (Low: 5 mg/kg) of 0.54 mmol/L. For the same compound, under setting [1], the “lipid-lowering effect (in words)” value is on record as “obvious lipid-lowering effect”.
For the setting “High: 20 mg/kg”, `CC(C)c1ccc(Sc2cc3ncc(/C=C/[C@@H](O)C[C@@H](O)CC(=O)[O-])c(Sc4ccc(C(C)C)cc4)c3cc2F)cc1.CC(C)c1ccc(Sc2cc3ncc(/C=C/[C@@H](O)C[C@@H](O)CC(=O)[O-])c(Sc4ccc(C(C)C)cc4)c3cc2F)cc1.[Ca+2]` [Compound A13] registered a CHO of 8.88 mmol/L, a H/L of 1.79, an HDL-C of 5.64 mmol/L and an LDL-C of 3.95 mmol/L. For the setting “High: 20 mg/kg”, the TG is reported as 0.35 mmol/L. For the setting “Low: 5 mg/kg”, this compound had a CHO of 14.13 mmol/L, a H/L of 0.92, an HDL-C of 6.93 mmol/L and an LDL-C of 9.23 mmol/L. Moreover, the TG (Low: 5 mg/kg) came to 0.56 mmol/L. Besides, under setting [1], the “lipid-lowering effect (in words)” value is “obvious lipid-lowering effect”; the “way of reducing lipidemia (in words)” value was “reduces lipidemia by lowering TG and increasing H/L ratio”.
As for `O=C([O-])C[C@H](O)C[C@H](O)/C=C/c1cnc2cc(Cl)c(F)cc2c1Oc1ccc(F)cc1.O=C([O-])C[C@H](O)C[C@H](O)/C=C/c1cnc2cc(Cl)c(F)cc2c1Oc1ccc(F)cc1.[Ca+2]` [Compound A14, (3R,5S)-7-[6-fluoro-7-chloro-4-(4-fluorophenoxy)quinoline-3-yl]-3,5-dihydroxy-6(E)-heptenoic acid hemi calcium salt], where the note is “High: 20 mg/kg”, the CHO is reported as 7.61 mmol/L, the H/L is 1.44, the HDL-C was determined as 4.66 mmol/L and the LDL-C amounted to 3.62 mmol/L. Further, the TG (High: 20 mg/kg) amounted to 0.96 mmol/L. For the same compound, where the note is “Low: 5 mg/kg”, the CHO was 11.64 mmol/L, the H/L is given as 1.15, the HDL-C was 6.63 mmol/L and the LDL-C is listed as 6.40 mmol/L. This compound had a TG (Low: 5 mg/kg) of 0.74 mmol/L. In addition, the “lipid-lowering effect (in words)” value under setting [1] is listed as “obvious lipid-lowering effect”.
